Usually IC50 stands for the midpoint of a concentration-inhibition curve.

Where only a bound is given, the exact number is not on record here.

For experiment [1], the target named is T1, AHR (Homo sapiens, UniProt P35869).
T1 sequence (P35869 11-848): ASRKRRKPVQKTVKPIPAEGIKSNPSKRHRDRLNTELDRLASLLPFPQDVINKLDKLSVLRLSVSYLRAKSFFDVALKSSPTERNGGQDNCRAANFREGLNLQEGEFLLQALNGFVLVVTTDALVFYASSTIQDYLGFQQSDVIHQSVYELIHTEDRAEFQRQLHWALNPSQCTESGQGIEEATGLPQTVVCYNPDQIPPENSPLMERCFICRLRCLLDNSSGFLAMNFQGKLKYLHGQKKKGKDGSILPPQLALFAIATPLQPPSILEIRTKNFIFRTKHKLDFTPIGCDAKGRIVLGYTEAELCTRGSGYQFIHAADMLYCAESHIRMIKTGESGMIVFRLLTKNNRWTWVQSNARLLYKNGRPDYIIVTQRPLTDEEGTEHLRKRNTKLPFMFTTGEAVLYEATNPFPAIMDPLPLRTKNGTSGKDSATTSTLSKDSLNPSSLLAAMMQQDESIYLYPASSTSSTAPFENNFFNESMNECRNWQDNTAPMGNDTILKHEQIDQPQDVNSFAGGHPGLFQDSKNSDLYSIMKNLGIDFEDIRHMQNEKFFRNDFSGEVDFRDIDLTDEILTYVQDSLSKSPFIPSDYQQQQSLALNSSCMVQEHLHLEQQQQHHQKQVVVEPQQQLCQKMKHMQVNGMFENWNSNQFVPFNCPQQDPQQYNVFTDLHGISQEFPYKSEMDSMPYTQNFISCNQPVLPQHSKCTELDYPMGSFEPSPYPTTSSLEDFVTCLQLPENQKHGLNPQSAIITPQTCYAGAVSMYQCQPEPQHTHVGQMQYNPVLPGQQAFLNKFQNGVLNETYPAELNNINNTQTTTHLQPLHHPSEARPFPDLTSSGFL
In words: In vitro assay 2: agonism in human cell line (transactivation assay).

Experiment [2] has as its target T1, AHR. In words: In vitro assay 1: antagonism in human cell line (transactivation assay, kynurenic acid prestimulated). To be noted: Assay 1: AHR-luc Hum Antagonism IC50 [M], 150 μM kynurenic acid, 20 hours, firefly luciferase.
The mark [3] stands for this setting: Assay 2: AHR-luc Hum Agonism IC50 [M], no kynurenic acid, 20 hours, firefly luciferase.
[4] abbreviates: read-out: Assay 2: AHR-luc Hum Agonism IC50, no kynurenic acid, 20 hours, firefly luciferase.

In the case of `C[C@@H](CO)NC(=O)c1cc(-c2ccc(Cl)cc2)nn(-c2cccc(C(F)F)c2)c1=O` [Example 370, 6-(4-chlorophenyl)-2-[3-(difluoromethyl)phenyl]-N-[(2S)-1-hydroxypropan-2-yl]-3-oxo-2,3-dihydropyridazine-4-carboxamide], the half-maximal inhibitory concentration (IC50) at AHR [1] (setting [3]) was > 2e-05 M; against AHR [2], 9.24e-07 M.

For `O=C(NC(CO)C(F)(F)F)c1cc(-c2ccc(OC(F)(F)F)cc2)nn(-c2cccc(F)c2)c1=O` (single isomer, unassigned) [Example 171, 2-(3-Fluorophenyl)-3-oxo-N-(1,1,1-trifluoro-3-hydroxypropan-2-yl)-6-[4-(trifluoromethoxy)phenyl]-2,3-dihydropyridazine-4-carboxamide], the half-inhibitory concentration (IC50) at AHR [1] (setting [4]) was > 2e-05 M; against AHR [2] it was 6.77e-07 M.

With `C[C@@H](CO)NC(=O)c1cc(-c2ccc(C(F)F)cc2)nn(-c2cccc(F)c2)c1=O` [Example 93, 6-[4-(Difluoromethyl)phenyl]-2-(3-fluorophenyl)-N-[(2S)-1-hydroxypropan-2-yl]-3-oxo-2,3-dihydropyridazine-4-carboxamide], the figures for the IC50 against AHR [1] (setting [3]) and at AHR [2] were > 2e-05 M and 3.02e-08 M, respectively.

Consider `O=C(NCC(O)C(F)(F)F)c1cc(-c2ccc(Cl)c(F)c2)nn(-c2cccc(F)c2)c1=O` (single isomer, unassigned) [Example 283, 6-(4-chloro-3-fluorophenyl)-2-(3-fluorophenyl)-3-oxo-N-(3,3,3-trifluoro-2-hydroxypropyl)-2,3-dihydropyridazine-4-carboxamide], for which the values for the IC50 against AHR [1] (setting [3]) and against AHR [2] were > 2e-05 M and 1.91e-07 M, respectively.

With `CC(CO)CNC(=O)c1cc(-c2ccc(Cl)cc2)nn(-c2cccc(F)c2)c1=O` (single isomer, unassigned; (-)) [Example 202, (−)-6-(4-Chlorophenyl)-2-(3-fluorophenyl)-N-(3-hydroxy-2-methylpropyl)-3-oxo-2,3-dihydropyridazine-4-carboxamide], the IC50 at AHR [1] (setting [4]) is > 2e-05 M; on AHR [2], 1.02e-07 M.

In the case of `CC(O)C(C)NC(=O)c1cc(-c2ccc(OC(F)(F)F)cc2)nn(-c2cccc(F)c2)c1=O` (stereo not drawn) [Example 179, 2-(3-Fluorophenyl)-N-(3-hydroxybutan-2-yl)-3-oxo-6-[4-(trifluoromethoxy)phenyl]-2,3-dihydropyridazine-4-carboxamide], the concentration for half-maximal inhibition (IC50) against AHR [1] (setting [3]) is > 2e-05 M; on AHR [2] it was 7.36e-08 M.

For the molecule `CC[C@@H](CO)NC(=O)c1cc(-c2ccc(C(F)F)cc2)nn(-c2cccc(F)c2)c1=O` [Example 92, 6-[4-(Difluoromethyl)phenyl]-2-(3-fluorophenyl)-N-[(2S)-1-hydroxybutan-2-yl]-3-oxo-2,3-dihydropyridazine-4-carboxamide], the concentration for half-maximal inhibition (IC50) is > 2e-05 M on AHR [1] (setting [3]) and 1.2e-08 M against AHR [2].

As for `Cc1ccc(-c2cc(C(=O)NCC(O)C(F)(F)F)c(=O)n(-c3cccc(F)c3)n2)cc1` (single isomer, unassigned; enantiomer 2) [Example 6, 2-(3-Fluorophenyl)-6-(4-methylphenyl)-3-oxo-N-(3,3,3-trifluoro-2-hydroxypropyl)-2,3-dihydropyridazine-4-carboxamide, enantiomer 2], the IC50 is > 2e-05 M on AHR [1] (setting [4]) and 6.58e-08 M against AHR [2].

As to `O=C(N[C@@H]1CCCC[C@@H]1O)c1cc(-c2ccc(Cl)cc2)nn(-c2cccc(F)c2)c1=O` (single isomer, unassigned) [Example 105, 6-(4-Chlorophenyl)-2-(3-fluorophenyl)-N-(cis-2-hydroxycyclohexyl)-3-oxo-2,3-dihydropyridazine-4-carboxamide], the values for the IC50 on AHR [1] (setting [4]) and on AHR [2] were > 2e-05 M and 1.51e-07 M, respectively.

For `O=C(NC(CO)C1CCOC1)c1cc(-c2ccc(OC(F)(F)F)cc2)nn(-c2cccc(F)c2)c1=O` (stereo not drawn) [Example 174, 2-(3-Fluorophenyl)-N-[2-hydroxy-1-(tetrahydrofuran-3-yl)ethyl]-3-oxo-6-[4-(trifluoromethoxy)phenyl]-2,3-dihydropyridazine-4-carboxamide], the IC50 against AHR [1] (setting [3]) is > 2e-05 M; against AHR [2] it was 3.33e-08 M.

Regarding `O=C(NC(CO)(CO)C(F)(F)F)c1cc(-c2ccc(Cl)cc2)nn(-c2cccc(F)c2)c1=O` [Example 280, 6-(4-Chlorophenyl)-2-(3-fluorophenyl)-3-oxo-N-[1,1,1-trifluoro-3-hydroxy-2-(hydroxymethyl)propan-2-yl]-2,3-dihydropyridazine-4-carboxamide], the IC50 is > 2e-05 M against AHR [1] (setting [3]) and 1.92e-08 M on AHR [2].

With `O=C(N[C@H]1COC[C@@H]1O)c1cc(-c2ccc(Cl)cc2)nn(-c2cccc(F)c2)c1=O` (single isomer, unassigned) [Example 136, 6-(4-Chlorophenyl)-2-(3-fluorophenyl)-N-(trans-4-hydroxytetrahydrofuran-3-yl)-3-oxo-2,3-dihydropyridazine-4-carboxamide], the figures for the 50% inhibitory concentration (IC50) on AHR [1] (setting [4]) and on AHR [2] were > 2e-05 M and 1.43e-07 M, respectively.

Consider `CC(C)(O)CNC(=O)c1cc(-c2ccc(OC(F)(F)F)cc2)nn(-c2cccc(F)c2)c1=O` [Example 382, 2-(3-fluorophenyl)-N-(2-hydroxy-2-methylpropyl)-3-oxo-6-[4-(trifluoromethoxy)phenyl]-2,3-dihydropyridazine-4-carboxamide], for which the concentration for half-maximal inhibition (IC50) against AHR [1] (setting [3]) was > 2e-05 M; at AHR [2] it was 9e-08 M.

For the molecule `O=C(NCC(O)C(F)(F)F)c1cc(-c2ccc(Cl)c(F)c2)nn(-c2cccc(F)c2)c1=O` (stereo not drawn) [Example 282, 6-(4-chloro-3-fluorophenyl)-2-(3-fluorophenyl)-3-oxo-N-(3,3,3-trifluoro-2-hydroxypropyl)-2,3-dihydropyridazine-4-carboxamide], the IC50 against AHR [1] (setting [3]) was > 2e-05 M; at AHR [2] it was 1.81e-07 M.

With `O=C(N[C@@H]1COC[C@@H]1O)c1cc(-c2ccc(C(F)(F)F)cc2)nn(-c2cccc(F)c2)c1=O` (racemic) [Example 341, 2-(3-fluorophenyl)-N-(cis-4-hydroxytetrahydrofuran-3-yl)-3-oxo-6-[4-(trifluoromethyl)phenyl]-2,3-dihydropyridazine-4-carboxamide], the IC50 is > 2e-05 M on AHR [1] (setting [3]) and 8.45e-09 M against AHR [2].

In the case of `O=C(NC[C@@H](O)CO)c1cc(-c2ccc(Cl)cc2)nn(-c2cccc(F)c2)c1=O` [Example 159, 6-(4-Chlorophenyl)-N-[(2R)-2,3-dihydroxypropyl]-2-(3-fluorophenyl)-3-oxo-2,3-dihydropyridazine-4-carboxamide], the values for the concentration for half-maximal inhibition (IC50) against AHR [1] (setting [3]) and at AHR [2] were > 2e-05 M and 2.84e-07 M, respectively.

For the molecule `C[C@@H](CO)NC(=O)c1cc(-c2ccc(OC(F)F)cc2)nn(-c2cccc(F)c2)c1=O` [Example 155, 6-[4-(Difluoromethoxy)phenyl]-2-(3-fluorophenyl)-N-[(2S)-1-hydroxypropan-2-yl]-3-oxo-2,3-dihydropyridazine-4-carboxamide], the IC50 on AHR [1] (setting [3]) was > 2e-05 M; against AHR [2], 1.7e-07 M.

As to `O=C(NC(CO)C1CCOC1)c1cc(-c2ccc(OC(F)F)cc2)nn(-c2cccc(F)c2)c1=O` (single isomer, unassigned) [Example 147, 6-[4-(Difluoromethoxy)phenyl]-2-(3-fluorophenyl)-N-{(2-hydroxy-1-tetrahydrofuran-3-yl)ethyl}-3-oxo-2,3-dihydropyridazine-4-carboxamide], the IC50 on AHR [1] (setting [4]) is > 2e-05 M; on AHR [2], 4.66e-07 M.

Turning to `Cc1ccc(-c2cc(C(=O)NCC(O)C(C)C)c(=O)n(-c3cccc(F)c3)n2)cc1` (single isomer, unassigned; enantiomer 2) [Example 12, 2-(3-Fluorophenyl)-N-(2-hydroxy-3-methylbutyl)-6-(4-methylphenyl)-3-oxo-2,3-dihydropyridazine-4-carboxamide, enantiomer 2], the IC50 at AHR [1] (setting [4]) is > 2e-05 M; at AHR [2] it was 1.22e-07 M.

Consider `O=C(NCC(O)C(F)(F)F)c1cc(-c2ccc(Cl)cc2)nn(-c2cc(F)cc(F)c2)c1=O` (single isomer, unassigned) [Example 46, 6-(4-Chlorophenyl)-2-(3,5-difluorophenyl)-3-oxo-N-(3,3,3-trifluoro-2-hydroxypropyl)-2,3-dihydropyridazine-4-carboxamide], for which the IC50 is > 2e-05 M at AHR [1] (setting [4]) and 5.64e-08 M at AHR [2].

Turning to `O=C(NCC(O)C(F)(F)F)c1cc(-c2ccc(OC(F)F)cc2)nn(-c2cccc(F)c2)c1=O` (stereo not drawn) [Example 120, 6-[4-(Difluoromethoxy)phenyl]-2-(3-fluorophenyl)-3-oxo-N-(3,3,3-trifluoro-2-hydroxypropyl)-2,3-dihydropyridazine-4-carboxamide], the IC50 against AHR [1] (setting [3]) is > 2e-05 M; at AHR [2], 4.47e-08 M.
